# According to ChEMBL document CHEMBL1153912, “Antiproliferative effects of peracetylated naphthoxylosides” (Bioorg Med Chem Lett, 2009):
# Columns and labels:
# [1] = test system: T-24; assay: Antiproliferative activity against human T24 cells after 96 hrs by crystal violet assay; assay type: functional; details: T-24, 96 h, read-out: ED50 (the source's name)
# [2] = test system: HFL1; assay: Induction of glycosaminoglycan synthesis priming in human HFL1 cells assessed as ratio of fractions containing free glycosaminoglycan chains in drug to untreated control; assay type: cell-based; further: test concentration or dose not given here
# [3] = Antiproliferative activity against human HFL1 cells after 96 hrs by crystal violet assay; assay type: cell-based; details: read-out: ED50
# [4] = test system: T-24; assay: Induction of glycosaminoglycan synthesis priming in human T24 cells assessed as ratio of fractions containing free glycosaminoglycan chains in drug to untreated control; assay type: functional; further: test concentration or dose not given here
SMILES,Ratio [2],EC50 [1],GI50 at 96 h [3],Ratio [4]
CC(=O)O[C@@H]1[C@@H](OC(C)=O)[C@H](Oc2cc3ccccc3cc2O[C@@H]2OC[C@@H](OC(C)=O)[C@H](OC(C)=O)[C@H]2OC(C)=O)OC[C@H]1OC(C)=O,2.8,220 µM,30 µM,4.2
CC(=O)O[C@@H]1[C@@H](OC(C)=O)[C@H](Oc2cc(O[C@@H]3OC[C@@H](OC(C)=O)[C@H](OC(C)=O)[C@H]3OC(C)=O)c3ccccc3c2)OC[C@H]1OC(C)=O,4.7,40 µM,20 µM,3.4
CC(=O)O[C@@H]1[C@@H](OC(C)=O)[C@H](Oc2ccc3cccc(O[C@@H]4OC[C@@H](OC(C)=O)[C@H](OC(C)=O)[C@H]4OC(C)=O)c3c2)OC[C@H]1OC(C)=O,11.1,110 µM,135 µM,0.5
CC(=O)O[C@@H]1[C@@H](OC(C)=O)[C@H](Oc2ccc(O[C@@H]3OC[C@@H](OC(C)=O)[C@H](OC(C)=O)[C@H]3OC(C)=O)c3ccccc23)OC[C@H]1OC(C)=O,13.6,140 µM,15 µM,8
CC(=O)O[C@@H]1[C@@H](OC(C)=O)[C@H](Oc2ccc3ccc(O[C@@H]4OC[C@@H](OC(C)=O)[C@H](OC(C)=O)[C@H]4OC(C)=O)cc3c2)OC[C@H]1OC(C)=O,6.4,60 µM,65 µM,5.4
CC(=O)O[C@@H]1[C@@H](OC(C)=O)[C@H](Oc2ccc3ccccc3c2O[C@@H]2OC[C@@H](OC(C)=O)[C@H](OC(C)=O)[C@H]2OC(C)=O)OC[C@H]1OC(C)=O,0.8,25 µM,5 µM,1.4
CC(=O)O[C@@H]1[C@@H](OC(C)=O)[C@H](Oc2ccc3c(O[C@@H]4OC[C@@H](OC(C)=O)[C@H](OC(C)=O)[C@H]4OC(C)=O)cccc3c2)OC[C@H]1OC(C)=O,12.7,100 µM,160 µM,8.8
CC(=O)O[C@@H]1[C@@H](OC(C)=O)[C@H](Oc2cccc3cccc(O[C@@H]4OC[C@@H](OC(C)=O)[C@H](OC(C)=O)[C@H]4OC(C)=O)c23)OC[C@H]1OC(C)=O,2.4,190 µM,20 µM,1.7
CC(=O)O[C@@H]1[C@@H](OC(C)=O)[C@H](Oc2ccc3cc(O[C@@H]4OC[C@@H](OC(C)=O)[C@H](OC(C)=O)[C@H]4OC(C)=O)ccc3c2)OC[C@H]1OC(C)=O,15.5,320 µM,55 µM,8.2
CC(=O)O[C@@H]1[C@@H](OC(C)=O)[C@H](Oc2cccc3c(O[C@@H]4OC[C@@H](OC(C)=O)[C@H](OC(C)=O)[C@H]4OC(C)=O)cccc23)OC[C@H]1OC(C)=O,5.4,170 µM,10 µM,6.9

# Now from value to compound, other results behind:
Ratio [2],SMILES,EC50 [1],GI50 at 96 h [3],Ratio [4]
2.2,CC(=O)Oc1cc2ccccc2cc1O[C@@H]1OC[C@@H](OC(C)=O)[C@H](OC(C)=O)[C@H]1OC(C)=O,260 µM,75 µM,4.6
2.2,CC(=O)Oc1ccc2ccc(O[C@@H]3OC[C@@H](OC(C)=O)[C@H](OC(C)=O)[C@H]3OC(C)=O)cc2c1,190 µM,85 µM,6.5
1.8,CC(=O)Oc1c(O[C@@H]2OC[C@@H](OC(C)=O)[C@H](OC(C)=O)[C@H]2OC(C)=O)ccc2ccccc12,250 µM,110 µM,7.1
1,CC(=O)Oc1cc(O[C@@H]2OC[C@@H](OC(C)=O)[C@H](OC(C)=O)[C@H]2OC(C)=O)cc2ccccc12,65 µM,60 µM,3.7
2.7,CC(=O)Oc1cccc2c(O[C@@H]3OC[C@@H](OC(C)=O)[C@H](OC(C)=O)[C@H]3OC(C)=O)cccc12,170 µM,90 µM,6.1
0.8,CC(=O)Oc1cccc2cccc(O[C@@H]3OC[C@@H](OC(C)=O)[C@H](OC(C)=O)[C@H]3OC(C)=O)c12,205 µM,110 µM,2.4
2.1,CC(=O)Oc1cccc2ccc(O[C@@H]3OC[C@@H](OC(C)=O)[C@H](OC(C)=O)[C@H]3OC(C)=O)cc12,75 µM,65 µM,4.8
6.2,CC(=O)Oc1ccc2cccc(O[C@@H]3OC[C@@H](OC(C)=O)[C@H](OC(C)=O)[C@H]3OC(C)=O)c2c1,170 µM,80 µM,8.2
1.3,CC(=O)Oc1cccc2cc(O[C@@H]3OC[C@@H](OC(C)=O)[C@H](OC(C)=O)[C@H]3OC(C)=O)ccc12,65 µM,100 µM,6.9
0.6,CC(=O)Oc1ccc2ccccc2c1O[C@@H]1OC[C@@H](OC(C)=O)[C@H](OC(C)=O)[C@H]1OC(C)=O,170 µM,65 µM,0.5
1.8,CC(=O)Oc1ccc2c(O[C@@H]3OC[C@@H](OC(C)=O)[C@H](OC(C)=O)[C@H]3OC(C)=O)cccc2c1,110 µM,80 µM,6.4
2.2,CC(=O)Oc1cc(O[C@@H]2OC[C@@H](OC(C)=O)[C@H](OC(C)=O)[C@H]2OC(C)=O)c2ccccc2c1,25 µM,20 µM,4.5
2.5,CC(=O)Oc1ccc2cc(O[C@@H]3OC[C@@H](OC(C)=O)[C@H](OC(C)=O)[C@H]3OC(C)=O)ccc2c1,45 µM,80 µM,5.4
4.8,CC(=O)Oc1ccc(O[C@@H]2OC[C@@H](OC(C)=O)[C@H](OC(C)=O)[C@H]2OC(C)=O)c2ccccc12,130 µM,80 µM,9
